Assay results reported in ChEMBL document CHEMBL5223065, “Targeting the protease of West Nile virus” (RSC Med Chem, 2021).
*1 amine or outer side, *2 acyl side, *3 side chain or, on linkers, in order; H or OH if unused. Where a SMILES comes first, the peptide text is derived from it. [ ]: non-standard residue; d: D form. X1 = N=C(N)N[C@@H](CCCCN[*:1])C(=O)[*:2]; βAla = NCCC(=O)O

Columns and labels:
[1] = test system: Zika virus; assay: Antiviral activity against Zika virus Puerto Rico strain PRVABC59 infected in human A549 cells measured after 48 hrs by plaque reduction assay; assay type: functional, organism-based; conditions: Puerto Rico strain PRVABC59, A549, 48 h
[2] = test system: dengue virus type 2; assay: Antiviral activity against DENV2 New Guinea C infected in human A549 cells measured after 48 hrs by plaque reduction assay; assay type: functional, organism-based; conditions: A549, 48 h
[3] = test system: West Nile virus; assay: Antiviral activity against West Nile virus NY99 infected in human A549 cells measured after 48 hrs by plaque reduction assay; assay type: functional, organism-based; conditions: NY99, A549, 48 h
[4] = Inhibition of Dengue virus 4 NS2B-NS3 protease using Benzoyl-Nle-Lys-Arg-Arg-AMC as substrate preincubated for 1 hrs followed by substrate addition and measured after 10 mins by fluorescence based plate reader analysis; design: species or system dengue virus type 4
[5] = molecular target: Prothrombin (Homo sapiens, UniProt P00734); assay: Inhibition of thrombin (unknown origin) using CH3SO2-dCha-Gly-Arg-pNA as substrate by […] plate reader analysis
[6] = molecular target: Coagulation factor X (Homo sapiens, UniProt P00742); assay: Inhibition of factor Xa (unknown origin) using CH3OCO-dCha-Gly-Arg-pNA as substrate by […] plate reader analysis
Sequence of Coagulation factor X (P00742 41-179 limits assumed): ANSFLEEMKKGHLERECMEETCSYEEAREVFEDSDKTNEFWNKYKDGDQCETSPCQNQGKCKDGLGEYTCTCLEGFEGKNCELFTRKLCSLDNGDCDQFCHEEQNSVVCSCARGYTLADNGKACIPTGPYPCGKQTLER
Sequence of Coagulation factor X (P00742 235-488 limits assumed): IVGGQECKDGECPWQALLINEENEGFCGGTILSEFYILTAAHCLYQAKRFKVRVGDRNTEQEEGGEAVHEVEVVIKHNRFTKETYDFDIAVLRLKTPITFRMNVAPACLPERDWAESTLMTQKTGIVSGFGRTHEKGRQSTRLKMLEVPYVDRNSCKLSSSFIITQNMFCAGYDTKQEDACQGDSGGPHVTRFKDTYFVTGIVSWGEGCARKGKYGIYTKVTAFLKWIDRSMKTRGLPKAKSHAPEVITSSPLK

[7] = Cytotoxicity against African green monkey Vero cells incubated for 24 hrs by MTT assay; assay type: toxicity, cell-based; conditions: chlorocebus sabaeus
[8] = test system: dengue virus type 3; assay: Antiviral activity against DENV3 infected in African green monkey Vero cells assessed as inhibition of viral infection by virucidal assay; assay type: functional, organism-based
[9] = test system: dengue virus type 1; assay: Antiviral activity against DENV1 infected in African green monkey Vero cells assessed as inhibition of viral infection by virucidal assay; assay type: functional, organism-based
[10] = test system: dengue virus type 4; assay: Antiviral activity against DENV4 infected in African green monkey Vero cells assessed as inhibition of viral infection by virucidal assay; assay type: functional, organism-based
[11] = test system: dengue virus type 2; assay: Antiviral activity against DENV2 infected in African green monkey Vero cells assessed as inhibition of viral infection by virucidal assay; assay type: functional, organism-based
[12] = test system: West Nile virus; assay: Inhibition of West Nile virus EG101 NS2BH-NS3 protease expressed in Escherichia coli Top10 F' cells using Boc-Gly-Lys-Arg-AMC as substrate preincubated with compound for 15 mins followed by substrate addition and measured after 15 mins by fluorescence based assay; conditions: time 30.0 min
[13] = Cytotoxicity against golden hamster BHK-21 cells incubated for 24 hrs by CCK-8 assay; assay type: toxicity, cell-based, Mesocricetus auratus
[14] = test system: dengue virus type 2; assay: Antiviral activity against DENV2 infected in golden hamster BHK-21 cells preincubated with virus for 18 hrs followed by compound addition and measured after 24 hrs by plaque reduction assay; assay type: functional, organism-based
[15] = molecular target: Genome polyprotein (West Nile virus) (UniProt P06935); assay: Uncompetitive inhibition of recombinant West Nile virus NS2B-NS3 protease using Pyr-RTKR-AMC as substrate assessed as inhibition constant preincubated for 15 mins followed by substrate addition
Target sequence in this assay (P06935 1371-1501 limits assumed): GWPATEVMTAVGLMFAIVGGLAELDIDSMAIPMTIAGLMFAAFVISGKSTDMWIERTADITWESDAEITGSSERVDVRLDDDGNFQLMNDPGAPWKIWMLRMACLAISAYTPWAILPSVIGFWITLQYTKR
Target sequence in this assay (P06935 1502-2120 limits assumed): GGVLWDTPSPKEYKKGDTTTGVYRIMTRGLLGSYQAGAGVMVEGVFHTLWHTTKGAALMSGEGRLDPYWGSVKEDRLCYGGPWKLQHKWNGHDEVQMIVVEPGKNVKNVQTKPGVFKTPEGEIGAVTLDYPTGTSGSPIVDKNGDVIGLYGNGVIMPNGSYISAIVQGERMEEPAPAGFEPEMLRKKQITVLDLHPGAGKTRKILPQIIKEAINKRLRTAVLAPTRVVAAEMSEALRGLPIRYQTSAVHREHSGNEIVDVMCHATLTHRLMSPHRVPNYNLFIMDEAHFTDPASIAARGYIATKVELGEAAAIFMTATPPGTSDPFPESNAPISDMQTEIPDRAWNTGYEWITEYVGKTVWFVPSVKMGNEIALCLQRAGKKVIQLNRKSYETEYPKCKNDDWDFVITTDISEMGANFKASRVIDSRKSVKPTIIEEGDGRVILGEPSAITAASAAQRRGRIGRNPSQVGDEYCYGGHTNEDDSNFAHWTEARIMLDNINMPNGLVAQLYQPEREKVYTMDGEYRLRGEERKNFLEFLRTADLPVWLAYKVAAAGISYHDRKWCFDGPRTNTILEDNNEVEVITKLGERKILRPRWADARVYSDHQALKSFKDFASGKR

[16] = molecular target: Genome polyprotein (West Nile virus) (UniProt P06935); assay: Inhibition of West Nile virus NS2B-NS3 protease using Bz-nKRR-AMC as substrate assessed as inhibition constant preincubated for 30 mins followed by substrate addition and measured after 60 mins by fluorescence based microplate reader analysis; conditions: time 90.0 min
Target sequence in this assay (P06935 whole entry): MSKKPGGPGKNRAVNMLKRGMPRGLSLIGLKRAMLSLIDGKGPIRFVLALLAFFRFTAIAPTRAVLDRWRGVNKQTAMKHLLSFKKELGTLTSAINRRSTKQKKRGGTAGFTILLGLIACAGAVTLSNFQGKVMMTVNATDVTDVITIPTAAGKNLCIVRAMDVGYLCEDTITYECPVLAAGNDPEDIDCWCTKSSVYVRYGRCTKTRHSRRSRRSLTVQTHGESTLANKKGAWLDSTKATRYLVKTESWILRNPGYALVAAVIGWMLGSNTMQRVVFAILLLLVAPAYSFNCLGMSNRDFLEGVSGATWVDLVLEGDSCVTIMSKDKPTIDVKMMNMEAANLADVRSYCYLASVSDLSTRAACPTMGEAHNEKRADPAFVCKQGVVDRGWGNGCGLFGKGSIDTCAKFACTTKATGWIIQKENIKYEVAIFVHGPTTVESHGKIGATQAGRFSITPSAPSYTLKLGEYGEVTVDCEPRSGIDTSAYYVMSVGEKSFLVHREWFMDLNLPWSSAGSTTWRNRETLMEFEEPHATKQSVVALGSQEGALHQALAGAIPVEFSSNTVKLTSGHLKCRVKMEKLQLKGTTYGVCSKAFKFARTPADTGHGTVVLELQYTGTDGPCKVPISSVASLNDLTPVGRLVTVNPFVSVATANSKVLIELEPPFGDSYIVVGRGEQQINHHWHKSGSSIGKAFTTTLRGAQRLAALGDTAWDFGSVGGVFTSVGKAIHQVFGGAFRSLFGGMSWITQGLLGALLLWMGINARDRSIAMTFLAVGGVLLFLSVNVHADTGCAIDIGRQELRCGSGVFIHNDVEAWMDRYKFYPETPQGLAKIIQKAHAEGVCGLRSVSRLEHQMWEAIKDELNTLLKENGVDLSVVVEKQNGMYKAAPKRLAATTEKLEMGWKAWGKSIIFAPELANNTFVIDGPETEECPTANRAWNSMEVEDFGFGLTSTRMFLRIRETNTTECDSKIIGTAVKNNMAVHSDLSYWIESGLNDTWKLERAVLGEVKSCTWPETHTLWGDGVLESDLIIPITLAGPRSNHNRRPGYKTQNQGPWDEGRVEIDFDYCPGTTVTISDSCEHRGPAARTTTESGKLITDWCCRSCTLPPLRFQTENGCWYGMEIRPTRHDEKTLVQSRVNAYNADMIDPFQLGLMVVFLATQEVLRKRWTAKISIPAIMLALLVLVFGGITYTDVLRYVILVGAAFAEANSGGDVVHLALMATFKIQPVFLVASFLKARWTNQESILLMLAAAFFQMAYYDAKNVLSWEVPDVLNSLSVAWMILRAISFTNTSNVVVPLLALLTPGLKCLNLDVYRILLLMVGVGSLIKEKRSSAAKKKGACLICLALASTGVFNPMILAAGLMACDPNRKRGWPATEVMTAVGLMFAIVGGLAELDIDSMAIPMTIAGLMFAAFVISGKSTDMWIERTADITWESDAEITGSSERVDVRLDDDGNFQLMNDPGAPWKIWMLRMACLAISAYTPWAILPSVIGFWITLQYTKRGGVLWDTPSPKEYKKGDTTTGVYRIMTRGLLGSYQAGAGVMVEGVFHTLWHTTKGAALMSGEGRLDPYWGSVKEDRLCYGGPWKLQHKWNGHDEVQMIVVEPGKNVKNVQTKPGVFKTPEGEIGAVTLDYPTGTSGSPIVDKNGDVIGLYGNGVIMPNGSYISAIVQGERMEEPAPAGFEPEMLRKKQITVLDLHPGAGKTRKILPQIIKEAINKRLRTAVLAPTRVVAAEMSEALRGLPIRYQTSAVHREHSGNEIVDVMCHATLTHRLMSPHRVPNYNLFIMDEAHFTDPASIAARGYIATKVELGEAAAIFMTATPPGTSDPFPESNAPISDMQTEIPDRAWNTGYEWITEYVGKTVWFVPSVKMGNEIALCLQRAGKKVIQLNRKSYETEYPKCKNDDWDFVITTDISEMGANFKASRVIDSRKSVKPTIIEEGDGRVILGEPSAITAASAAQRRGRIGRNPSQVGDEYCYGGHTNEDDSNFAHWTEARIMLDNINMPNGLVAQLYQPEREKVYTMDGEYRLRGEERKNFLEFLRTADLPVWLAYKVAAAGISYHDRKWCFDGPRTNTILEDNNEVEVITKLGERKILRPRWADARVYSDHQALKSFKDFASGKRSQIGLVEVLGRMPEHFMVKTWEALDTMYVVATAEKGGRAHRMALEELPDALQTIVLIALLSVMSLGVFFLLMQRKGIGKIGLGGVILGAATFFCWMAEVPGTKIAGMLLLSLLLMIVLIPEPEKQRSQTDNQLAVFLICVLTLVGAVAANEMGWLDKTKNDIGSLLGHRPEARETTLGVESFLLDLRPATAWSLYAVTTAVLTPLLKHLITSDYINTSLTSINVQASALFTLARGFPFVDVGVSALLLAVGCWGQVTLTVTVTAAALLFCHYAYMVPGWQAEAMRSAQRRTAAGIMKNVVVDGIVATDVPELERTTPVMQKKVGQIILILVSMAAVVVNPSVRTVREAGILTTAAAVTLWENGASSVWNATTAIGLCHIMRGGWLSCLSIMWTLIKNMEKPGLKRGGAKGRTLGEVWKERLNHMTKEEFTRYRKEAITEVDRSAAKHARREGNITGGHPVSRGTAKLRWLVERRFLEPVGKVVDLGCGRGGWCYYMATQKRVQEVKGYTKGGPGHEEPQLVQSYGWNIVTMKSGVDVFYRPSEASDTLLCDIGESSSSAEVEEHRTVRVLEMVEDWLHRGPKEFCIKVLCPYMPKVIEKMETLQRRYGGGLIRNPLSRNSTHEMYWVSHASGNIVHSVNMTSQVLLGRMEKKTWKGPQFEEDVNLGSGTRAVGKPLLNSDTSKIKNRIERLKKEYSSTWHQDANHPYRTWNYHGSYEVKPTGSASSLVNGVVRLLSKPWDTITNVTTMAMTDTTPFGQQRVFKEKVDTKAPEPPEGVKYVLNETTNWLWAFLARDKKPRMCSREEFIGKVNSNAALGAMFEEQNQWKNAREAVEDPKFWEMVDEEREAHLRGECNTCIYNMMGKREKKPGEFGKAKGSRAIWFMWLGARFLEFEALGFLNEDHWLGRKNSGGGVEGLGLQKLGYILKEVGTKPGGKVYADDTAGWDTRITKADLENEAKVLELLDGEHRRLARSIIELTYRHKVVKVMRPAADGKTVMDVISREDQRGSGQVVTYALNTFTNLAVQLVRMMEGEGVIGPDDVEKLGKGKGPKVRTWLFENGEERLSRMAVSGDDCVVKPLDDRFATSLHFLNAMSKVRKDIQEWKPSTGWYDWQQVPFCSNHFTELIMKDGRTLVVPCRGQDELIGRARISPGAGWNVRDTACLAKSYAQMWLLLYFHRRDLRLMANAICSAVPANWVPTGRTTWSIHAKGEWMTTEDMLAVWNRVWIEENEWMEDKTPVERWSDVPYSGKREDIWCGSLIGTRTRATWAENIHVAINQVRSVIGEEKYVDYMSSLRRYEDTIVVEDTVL

[17] = test system: Zika virus; assay: Antiviral activity against Zika virus Puerto Rico strain PRVABC59 infected in human A549 cells measured after 42 hrs incubation under dark conditions by plaque reduction assay; assay type: functional, organism-based; conditions: Puerto Rico strain PRVABC59, A549, 42 h
[18] = test system: dengue virus type 2; assay: Antiviral activity against DENV2 infected in human A549 cells measured after 42 hrs by plaque reduction assay; assay type: functional, organism-based; conditions: A549, 42 h
[19] = Cytotoxicity against human A549 cells incubated for 42 hrs by MTT assay; assay type: toxicity, cell-based
[20] = test system: West Nile virus; assay: Antiviral activity against West Nile virus infected in human A549 cells measured after 42 hrs by plaque reduction assay; assay type: functional, organism-based
[21] = Cytotoxicity against golden hamster BHK-21 cells incubated for 24 hrs by ATP-lite assay; assay type: toxicity, cell-based, Mesocricetus auratus
[22] = test system: West Nile virus; assay: Antiviral activity against West Nile virus New York 99 infected in golden hamster BHK-21 cells co-expressing renilla luciferase assessed as inhibition of viral […] replication incubated for 24 hrs; assay type: functional, organism-based; conditions: New York 99, BHK-21, 24 h
[23] = Inhibition of DENV3 NS2B (50 to 95 residues)-NS3 (1 to 182 residues) protease expressed in Escherichia coli BL21-rosetta cells using Bz-Nle-Lys-Lys-Arg-AMC as substrate preincubated for 10 mins followed by substrate addition and measured every 30 secs; design: species or system dengue virus type 3
[24] = test system: West Nile virus; assay: Antiviral activity against West Nile virus NY003356V2 infected in human A549 cells measured after 48 hrs by plaque reduction assay; assay type: functional, organism-based; conditions: NY003356V2, A549, 48 h

O=C1OC2(c3ccccc31)c1cc(I)c(O)c(I)c1Oc1c2cc(I)c(O)c1I [ERYTHROSINE]
EC50 [1]: 620 nM
EC50 [2]: 1200 nM
EC50 [3]: 660 nM

N=C(N)N[C@H]1CCCCNC(=O)[C@H](CCCCN)NC(=O)[C@H](CCCCN)NC(=O)CCNC(=O)CNC(=O)CNC1=O (cyclo(GG[βAla]KK[X1]))
Ki [4]: 160 nM

N=C(N)N[C@H]1CC[C@H](CNC(=O)[C@H](CCCCN)NC(=O)[C@H](CCCCN)NC(=O)Cc2ccc(Cl)c(Cl)c2)CC1
Ki [5]: > 500000 nM
Ki [6]: > 200000 nM

C=CCc1ccc(OCc2cn(Cc3ccccc3Br)nn2)c(OC)c1
CC50 at 24 h [7]: > 300000 nM
EC50 [8]: 14000 nM
EC50 [9]: 14000 nM
EC50 [10]: 14000 nM
EC50 [11]: 14000 nM

Oc1ccccc1C(Nc1nccs1)c1ccc2cccnc2c1O (stereo not drawn)
K [12]: 3.4 µM

Cc1ccc(C(=O)c2cc(O)c(O)c([N+](=O)[O-])c2)cc1 [TOLCAPONE]
CC50 at 24 h [13]: 29200 nM
EC50 [14]: 2000 nM

CCc1ccc(NC(=O)CSc2nc3ccc(NC(=O)CSc4nnc(-c5ccccc5)[nH]4)cc3s2)cc1
K [15]: 2.8 µM

N=C(N)Nc1ccc(OC(=O)c2ccc(NC(=N)N)cc2)cc1
K [16]: 4.6 µM

Oc1cccc(-c2c3nc(c(-c4cccc(O)c4)c4ccc([nH]4)c(-c4cccc(O)c4)c4nc(c(-c5cccc(O)c5)c5ccc2[nH]5)CC4)C=C3)c1 [TEMOPORFIN]
EC50 [17]: 22 nM
EC50 [18]: 20 nM
CC50 at 42 h [19]: 40700 nM
EC50 ([20]; A549, 42 h): 10 nM
EC90 ([20]; A549, time 42 hrs): 30 nM

Clc1cc(OCc2nnc3sc(Cc4ccccc4)nn23)c(Cl)cc1OCc1nnc2sc(Cc3ccccc3)nn12
CC50 at 24 h [21]: > 200000 nM
EC50 [22]: 17000 nM

NCc1ccc(-c2ncc(OCC3CCNCC3)nc2-c2ccc(-c3cn[nH]c3)cc2)cc1
IC50 [23]: 200 nM

O=C1C=C/C(=N\Nc2ccc([N+](=O)[O-])cc2Cl)C=C1C(=O)Nc1cccc(Cl)c1
EC50 [1]: 1000 nM
EC50 [2]: 810 nM
CC50 at 42 h [19]: 48800 nM
EC50 [24]: 1270 nM
